Patent US7087584B2, “Detection and modulation of IAPs and NAIP for the diagnosis and treatment of proliferative disease” (Aegera Therapeutics Inc., priority 1997, dated 2006)

Columns and labels:
[1] = system: Cisplatin-sensitive (OV2008) human ovarian epithelial cells; assay: Apoptosis (nuclear staining, DNA ladders, TUNEL) in cisplatin-sensitive ovarian cancer cells; type: cell-based; settings: for incidence of apoptosis: cisplatin 0-30 μM or taxol 0-1.0 μM, up to 48 hours
Protocol: (§1) Cisplatin-sensitive (OV2008) and -resistant (C13) human ovarian epithelial cells were cultured in a chemically-defined medium at 37° C. for up to 48 hours in the presence or absence of TGFβ (20 ng/ml), taxol (0–1.0 μM) or cisplatin (0–30 μM). At the end of the culture period, cells were either fixed for immunocytochemistry and TUNEL analyses, or snap frozen for subsequent extraction for IAP mRNA and proteins analyses.
(§2) Human ovarian epithelial cancer cells were fixed (4% formalin in PBS; 10 min. RT), washed in PBS, resuspended in Hoescht 33248 stain (0.1 μg/ml PBS, 10 min) washed again and spotted onto slides for microscopy. Nuclear staining was observed and photographed using a Zeiss fluorescent microscope equipped with an FITC filter. Apoptotic cells were identified by typical nuclear morphology, and counted using randomly selected fields and numbered photographic slides to avoid bias during counting.
(§3) Cellular DNA was extracted using the Qiagen Blood Amt kit. DNA was quantified by ethidium bromide fluorescence. DNA (0.5 μg) was then end labelled by incubating (20 min, RT) with Klenow enzyme (2 U in 10 mM Tris+5 mM MgCl2) and 0.1 μCi [α32P]dCTP. Unincorporated nucleotides were removed with the Qiagen nucleotide removal kit and samples were resolved by Tris-acetate-EDTA agarose (1.8%) gel electrophoresis. The gel was then dried (2 hr, no heat) and exposed to a Bio-Rad phosphoimager screen to densitometrically quantify low molecular weight DNA (<15 kBp) and subsequently to x-ray film at −80° C.
To identify cell death using the in situ cell death detection kit (Boehringer-Mannheim), slides prepared for histology were treated (20 min. 37° C.) with terminal tranferase in the presence of FITC-conjugated dUTP.

HeLa cells = assay: Apoptosis and 26 kDa xiap cleavage product (Western blot) in HeLa cells; type: cell-based, human; settings: 18 hours; for 26 kDa xiap cleavage product: HeLa cells, cycloheximide 20 μg/ml, TNFα 1,000 U/ml, anti-Fas antibody 1 μg/ml; for apoptosis of HeLa cells: cycloheximide 20 μg/ml or TNFα 1,000 U/ml alone
Protocol: A 26 kDa xiap-reactive band was also observed under the following experimental conditions. Jurkat cells (a transformed human T cell line) were induced to undergo apoptosis by exposure to an anti-Fas antibody (1 μg/ml). Identical cultures of Jurkat cells were exposed either to: (1) anti-Fas antibody and cycloheximide (20 μg/ml), (2) tumor necrosis factor alpha (TNF-α, at 1,000 U/ml), or (3) TNF-α and cycloheximide (20 μg/ml). All cells were harvested 6 hours after treatment began. In addition, as a negative control, anti-Fas antibody was added to an extract after the cells were harvested. The cells were harvested in SDS sample buffer, electrophoresed on a 12.5% SDS polyacrylamide gel, and electroblotted onto PVDF membranes using standard methods. The membranes were immunostained with a rabbit polyclonal anti-xiap antibody at 1:1000 for 1 hour at room temperature. Following four 15 minute washes, a goat anti-rabbit antibody conjugated to horse-radish peroxidase was applied at room temperature for 1 hour. Unbound secondary antibody was washed away, and chemiluminescent detection of xiap protein was performed. […] In addition, a novel, approximately 26 kDa xiap-reactive band was also observed in apoptotic cell extracts, but not in the control, untreated cell extracts (FIG. 13).
Cleavage of xiap occurs in a variety of cell types, including other cancer cell lines such as HeLa. […] HeLa cells were treated with either: (1) cyclohexamide (20 μg/ml), (2) anti-Fas antibody (1 μg/ml), (3) anti-Fas antibody (1 μg/ml) and cyclohexamide (20 μg/ml), (4) TNFα (1,000 U/ml), or (5) TNFα (1,000 U/ml) and cyclohexamide (20 μg/ml). All cells were harvested 18 hours after treatment began. As above, anti-Fas antibody was added to an extract after the cells were harvested. HeLa cells were harvested, and the Western blot was probed under the same conditions as used to visualize xiap-reactive bands from Jurkat cell samples. A 26 kDa xiap band was again seen in the apoptotic cell preparations (FIG. 14). Furthermore, the degree of xiap cleavage correlated positively with cellular exposure to apoptotic triggers.
The time course over which the 26 kDa cleavage product accumulates was examined by treating HeLa and Jurkat cells with anti-Fas antibody (1 μg/ml) and harvesting them either immediately, or 1, 2, 3, 5, 10, or 22 hours after treatment. Protein extracts were prepared and Western blot analysis was performed as described above.

[2] = system: XIAP protein in OV2008 cells; assay: Western blot for XIAP protein in OV2008 cells; type: cell-based, human
Protocol: as §1
(§4) Protein extracts were prepared from human surface epithelial cancer cells sonicated (8 s/cycle, 3 cycles) on ice in sucrose buffer (0.25 M sucrose, 0.025 M NaCl, 1 mM EGTA and 15 mM Tris-HCl pH 6.8, supplemented with 1 mM PMSF, 2 μg/ml of leupeptin and 5 μg/ml of aprotinin. The sonicates were centrifuged at 13,000×g for 10 min, the supernatants were collected and stored at −20° C. until electrophoretic analyses were performed. Protein concentration was determined by Bio-Rad Protein Assay. Proteins (10–30 μg) were resolved by one-dimensional SDS-PAGE, and electrophoretically transferred to nitrocellulose membrane. Membranes were blocked with 5% non-fat milk, and subsequently incubated with rabbit polyclonal antibody for IAP anti-human Hiap-2ΔE(960529; 1:1000 dilution), anti-human NAIP E1.0 (951015; 1:1000 dilution) or anti-human Xiap (1:1000 dilution) diluted in TBST (10 mM Tris-buffered saline, 0.1% Tween-20, pH 7.5) containing 5% milk. […]

[3] = system: XIAP protein in C13 cells; assay: Western blot for XIAP protein in C13 cells; type: cell-based, human
Protocol: as §1, §4

[4] = system: HIAP-2 protein in OV2008 cells; assay: Western blot for HIAP-2 protein in OV2008 cells; type: cell-based, human
Protocol: as §1, §4

[5] = system: HIAP-2 protein in C13 cells; assay: Western blot for HIAP-2 protein in C13 cells; type: cell-based, human
Protocol: as §1, §4

[6] = system: HIAP-2 mRNA in OV2008 cells; assay: Northern blot for HIAP-2 mRNA in OV2008 cells; type: cell-based, human
Protocol: as §1
(§5) Total RNA from ovarian surface epithelial cancer cells by using RNeasy Kit (Qiagen). The RNA samples (10–15 μg) were quantified spectrophotometrically and size-fractioned by electrophoresis on formaldehyde-agarose gels (1.1%) containing 1 μg/ml ethidium bromide to confirm even loading of RNA samples and adequate separation of 28S and 18S ribosomal bands. The RNAs bands were blotted onto a nylon membrane and cross-linked by UV light. Membranes were prehybridized in 50% formamide, saline sodium citrate (SSC; 750 mM NaCl, 75 mM Na citrate), 1×Denhardt's solution, 1% SDS, 4 mM EDTA and 100 μg/ml sheared salmon sperm DNA for 4 h at 42° C. Hybridization was performed overnight at 42° C. with 20 million cpm of ^32P-labelled IAP cDNA probes (rat Naip, rat Xiap or human Hiap-2) added to the prehybridization buffer. […] Data were normalized by the respective 28S and expressed as a percentage of the control (defined as 100%).

HIAP-2 mRNA in C13 cells = assay: Northern blot for HIAP-2 mRNA in C13 cells; type: cell-based, human
Protocol: as §1, §5

[7] = system: Cisplatin-resistant (C13) human ovarian epithelial cells; assay: Apoptosis (nuclear staining, DNA ladders, TUNEL) in cisplatin-resistant ovarian cancer cells; type: cell-based; settings: TGFβ 20 ng/ml
Protocol: as §1, §2
as §3, with “Unincorporated nucleotides were removed with the Qiagen nucleotide removal kit and samples were resolved by Tris-acetate-EDTA agarose (1.8%) gel electrophoresis.” left out, “C. […]” for “C.”

With `N.N.[Cl][Pt][Cl]` [Cisplatin, cisplatin] the incidence of apoptosis [1] was “concentration-dependent increase”.

With TNFα the “26 kDa xiap cleavage product” value (HeLa cells) was “little cleavage product” and the “apoptosis of HeLa cells” value (HeLa cells) was “only minor apoptosis”.

For `C[C@@H]1C[C@@H]([C@H](O)CC2CC(=O)NC(=O)C2)C(=O)[C@@H](C)C1` [cycloheximide], the “26 kDa xiap cleavage product” value (HeLa cells) was “little cleavage product” and the “apoptosis of HeLa cells” value (HeLa cells) was “only minor apoptosis”.

In the case of `CC(=O)O[C@H]1C(=O)[C@@]2(C)[C@H]([C@H](OC(=O)c3ccccc3)[C@]3(O)C[C@H](OC(=O)[C@H](O)[C@@H](NC(=O)c4ccccc4)c4ccccc4)C(C)=C1C3(C)C)[C@]1(OC(C)=O)CO[C@@H]1C[C@@H]2O` [Taxol], the incidence of apoptosis [1] is reported as “induced apoptosis”, the XIAP protein level ([2]; OV2008 cells, Taxol 0.04-1.0 μM, concentration-dependent, more pronounced than in resistant cells) is reported as “decreased” and the XIAP protein level ([3]; C13 cells, Taxol 0.04-1.0 μM, concentration-dependent, less pronounced than in sensitive cells) is reported as “decreased”. The “content of approx. 45 kDa immunoreactive fragment of HIAP-2” value ([4]; Taxol) was “decreased”, the HIAP-2 protein level ([4]; Taxol 0.04-1.0 μM, concentration-dependent, more pronounced than in resistant cells) was “decreased” and the “content of approx. 45 kDa immunoreactive fragment of HIAP-2” value ([5]; Taxol) was “increased”. The HIAP-2 protein level ([5]; Taxol 0.04-1.0 μM, concentration-dependent, less pronounced than in sensitive cells) was “decreased”, the “suppression of HIAP-2 mRNA abundance” value ([6]; cisplatin-sensitive cells, Taxol 0.2 μM) was “approx. 80%” and the “suppression of HIAP-2 mRNA abundance” value (HIAP-2 mRNA in C13 cells; cisplatin-resistant cells, Taxol 0.2 μM) was “ineffective”.

In the case of “TGFβ: TGFβ (20 ng/ml) added to ovarian cancer cell cultures”, the induction of apoptosis ([1]; TGFβ 20 ng/ml) is reported as “induced apoptosis”, the induction of apoptosis [7] is reported as “not in C13” and the “influence on Xiap protein content” value ([2]; cisplatin-sensitive cells, TGFβ 20 ng/ml) is reported as “markedly suppressed”. The “influence on Xiap protein content” value ([3]; cisplatin-resistant cells, TGFβ 20 ng/ml) was “only marginal”, the “HIAP-2 mRNA” value ([6]; OV2008 cells, TGFβ 20 ng/ml) was “decreased” and the “HIAP-2 mRNA” value (HIAP-2 mRNA in C13 cells; C13 cells, TGFβ 20 ng/ml) was “not C13”.
